Reference: patent publication US20230082430A1 (C4 Therapeutics, Inc., priority 2019, published 2023)
pIC50: −log10 of the molar value.

The compounds below were run on NCIH929.1 cells (assay: Cell viability assay for Table 2 (CellTiter-Glo 2.0, ATP quantification, 96 hr)). Details: 96 h.
Format: cell-based
Description: Cell Viability Assay for Table 2
CellTiter-Glo® 2.0 Assay was purchased from Promega (Madison, Wis., USA). NCIH929.1 cell line was purchased from ATCC (Manassas, Va., USA). Cell culture flasks and 384-well microplates were acquired from VWR (Radnor, Pa., USA).

In the case of `N#Cc1ccc(N2CCN(Cc3ccc(Cc4ccc5c6c(cccc46)C(=O)N5C4CCC(=O)NC4=O)cc3F)CC2)c(F)c1` (stereo not drawn) [Compound 214, 4-[4-[[4-[[1-(2,6-dioxo-3-piperidyl)-2-oxo-benzo[cd]indol-6-yl]methyl]-2-fluoro-phenyl]methyl]piperazin-1-yl]-3-fluoro-benzonitrile], the pIC50 was > 9.00.

Same assay, conditions: 96 h, NCIH929.1 cell viability, 96 hr, top concentration 1 μM, 14 points half log titration; read-out: IC50

`CC1(n2cc(Cc3ccc4c5c(cccc35)C(=O)N4C3CCC(=O)NC3=O)nn2)CCN(C(=O)C2(C(F)(F)F)CC2)CC1` (stereo not drawn) [Compound 211, 3-(6-((1-(4-methyl-1-(1-(trifluoromethyl)cyclopropane-1-carbonyl)piperidin-4-yl)-1H-1,2,3-triazol-4-yl)methyl)-2-oxobenzo[cd]indol-1(2H)-yl)piperidine-2,6-dione] and `CC1(n2cc(Cc3ccc4c5c(cccc35)C(=O)N4C3CCC(=O)NC3=O)cn2)CCN(S(=O)(=O)C2(C)CCC2)CC1` (stereo not drawn) [Compound 233, 3-[6-[[1-[4-methyl-1-(1-methylcyclobutyl)sulfonyl-4-piperidyl]pyrazol-4-yl]methyl]-2-oxo-benzo[cd]indol-1-yl]piperidine-2,6-dione] cannot be ordered by pIC50: > 9.00 for the first, > 9.00 for the second.

`CC(C)(C)OC1CCC(n2cc(Cc3ccc4c5c(cccc35)C(=O)N4C3CCC(=O)NC3=O)cn2)CC1` (stereo not drawn) [Compound 212, 3-[6-[[1-(4-tert-butoxycyclohexyl)pyrazol-4-yl]methyl]-2-oxo-benzo[cd]indol-1-yl]piperidine-2,6-dione] and `CC1(C)C(N2CCC(n3cc(Cc4ccc5c6c(cccc46)C(=O)N5C4CCC(=O)NC4=O)cn3)CC2)C1(C)C` (stereo not drawn) [Compound 240, 3-(2-oxo-6-((1-(1-(2,2,3,3-tetramethylcyclopropyl)piperidin-4-yl)-1H-pyrazol-4-yl)methyl)benzo[cd]indol-1(2H)-yl)piperidine-2,6-dione] cannot be ordered by pIC50: > 9.00 for the first, > 9.00 for the second.

`O=C1CCC(N2C(=O)c3cccc4c(Cc5ccc(CN6CCC7(CCCO7)CC6)cc5)ccc2c34)C(=O)N1` (stereo not drawn) [Compound 215, 3-(6-(4-((1-oxa-8-azaspiro[4.5]decan-8-yl)methyl)benzyl)-2-oxobenzo[cd]indol-1(2H)-yl)piperidine-2,6-dione] and `O=C1CCC(N2C(=O)c3cccc4c(Cc5ccc(CN6CCC7(CCCCO7)CC6)cc5)ccc2c34)C(=O)N1` (stereo not drawn) [Compound 228, 3-(6-(4-((1-oxa-9-azaspiro[5.5]undecan-9-yl)methyl)benzyl)-2-oxobenzo[cd]indol-1(2H)-yl)piperidine-2,6-dione] cannot be ordered by pIC50: > 9.00 for the first, > 9.00 for the second.

`O=C1CCC(N2C(=O)c3cccc4c(Cc5ccc(CN6CCOCC6)cc5)ccc2c34)C(=O)N1` (stereo not drawn) [Compound 218, 3-(6-(4-(morpholinomethyl)benzyl)-2-oxobenzo[cd]indol-1(2H)-yl)piperidine-2,6-dione] and `O=C1CCC(N2C(=O)c3cccc4c(Cc5ccc(CN6CC7(COC7)C6)cc5)ccc2c34)C(=O)N1` (stereo not drawn) [Compound 230, 3-(6-(4-((2-oxa-6-azaspiro[3.3)heptan-6-yl)methyl)benzyl)-2-oxobenzo[cd]indol-1(2H)-yl)piperidine-2,6-dione] cannot be ordered by pIC50: > 9.00 for the first, > 9.00 for the second.

`O=C1CCC(N2C(=O)c3cccc4c(Cc5ccc(CN6CCC7(CCCO7)CC6)cc5)cnc2c34)C(=O)N1` (stereo not drawn) [Compound 222, 3-[23-[[4-(1-oxa-8-azaspiro[4.5]decan-8-ylmethyl)phenyl]methyl]-28-oxo-31,34-diazatricyclododeca-(2),1(21),7(23),22(24),25(31)-pentaen-34-yl]piperidine-2,6-dione] and `O=C1CCC(N2C(=O)c3cccc4c(Cc5ccc(CN6CCC7(CCCC7)CC6)cc5)ccc2c34)C(=O)N1` (stereo not drawn) [Compound 225, 3-(6-(4-((8-azaspiro[4.5]decan-8-yl)methyl)benzyl)-2-oxobenzo[cd]indol-1(2H)-yl)piperidine-2,6-dione] cannot be ordered by pIC50: > 9.00 for the first, > 9.00 for the second.

`O=C1CCC(N2C(=O)c3cccc4c(Cc5cnn(C6CCN(C7(C8CC8)CC7)CC6)c5)ccc2c34)C(=O)N1` (stereo not drawn) [Compound 223, 3-[6-[[1-[1-(1-cyclopropylcyclopropyl)-4-piperidyl]pyrazol-4-yl]methyl]-2-oxo-benzo[cd]indol-1-yl]piperidine-2,6-dione] and `O=C1CCC(N2C(=O)c3cccc4c(Cc5cnn(C6CCN([C@H]7CCC8(CCC8)C7)CC6)c5)ccc2c34)C(=O)N1` (stereo partly drawn) [Compound 242] cannot be ordered by pIC50: > 9.00 for the first, > 9.00 for the second.

`O=C1CCC(N2C(=O)c3cccc4c(Cc5ccc(CN6CCC7(CCCCC7)CC6)cc5)ccc2c34)C(=O)N1` (stereo not drawn) [Compound 224, 3-(6-(4-((3-azaspiro[5.5]undecan-3-yl)methyl)benzyl)-2-oxobenzo[cd]indol-1(2H)-yl)piperidine-2,6-dione] and `CC(C)(O)C1CCN(Cc2ccc(Cc3ccc4c5c(cccc35)C(=O)N4C3CCC(=O)NC3=O)cc2)CC1` (stereo not drawn) [Compound 232, 3-(6-(4-((4-(2-hydroxypropan-2-yl)piperidin-1-yl)methyl)benzyl)-2-oxobenzo[cd]indol-1(2H)-yl)piperidine-2,6-dione] cannot be ordered by pIC50: > 9.00 for the first, > 9.00 for the second.

`O=C1CCC(N2C(=O)c3cccc4c(Cc5ccc(CN6CCC(c7ccccc7)CC6)cc5)ccc2c34)C(=O)N1` (stereo not drawn) [Compound 227, 3-(2-oxo-6-(4-((4-phenylpiperidin-1-yl)methyl)benzyl)benzo[cd]indol-1(2H)-yl)piperidine-2,6-dione] and `CN(Cc1ccc(Cc2ccc3c4c(cccc24)C(=O)N3C2CCC(=O)NC2=O)cc1)c1ccccc1` (stereo not drawn) [Compound 229, 3-(6-(4-((methyl(phenyl)amino)methyl)benzyl)-2-oxobenzo[cd]indol-1(2H)-yl)piperidine-2,6-dione] cannot be ordered by pIC50: > 9.00 for the first, > 9.00 for the second.

`C[C@@H]1CN(Cc2ccc(Cc3ccc4c5c(cccc35)C(=O)N4C3CCC(=O)NC3=O)cc2)C[C@H](C)O1` (stereo partly drawn) [Compound 231, 3-(6-(4-(((2R,6S)-2,6-dimethylmorpholino)methyl)benzyl)-2-oxobenzo[cd]indol-1(2H)-yl)piperidine-2,6-dione] and `O=C1CCC(N2C(=O)c3cccc4c(Cc5cnn(C6CCN([C@@H]7CCC8(CCC8)C7)CC6)c5)ccc2c34)C(=O)N1` (stereo partly drawn) [Compound 243] cannot be ordered by pIC50: > 9.00 for the first, > 9.00 for the second.

`CC(C)(C)OC(=O)N1CCC(C)(n2cc(C(=O)c3ccc4c5c(cccc35)C(=O)N4C3CCC(=O)NC3=O)cn2)CC1` (stereo not drawn) [Compound 241, 4-{4-[1-(2,6-Dioxo-piperidin-3-yl)-2-oxo-1,2-dihydro-benzo[cd]indole-6-carbonyl]-pyrazol-1-yl}-4-methyl-piperidine-1-carboxylic acid tert-butyl ester] and `CN(c1cnn(C2CCN(C(=O)OC(C)(C)C)CC2)c1)c1ccc2c3c(cccc13)C(=O)N2C1CCC(=O)NC1=O` (stereo not drawn) [Compound 252, tert-butyl 4-[4-[[1-(2,6-dioxo-3-piperidyl)-2-oxo-benzo[cd]indol-6-yl]-methyl-amino]pyrazol-1-yl]piperidine-1-carboxylate] cannot be ordered by pIC50: > 7.00 for the first, > 7.00 for the second.

`CC1(C(=O)N2CCN(c3cnn(Cc4ccc5c6c(cccc46)C(=O)N5C4CCC(=O)NC4=O)c3)CC2)CCC1` (stereo not drawn) [Compound 246, 3-(6-((4-(4-(1-methylcyclobutane-1-carbonyl)piperazin-1-yl)-1H-pyrazol-1-yl)methyl)-2-oxobenzo[cd]indol-1(2H)-yl)piperidine-2,6-dione] and `CC1(C(=O)N2CCC(n3cc(Nc4ccc5c6c(cccc46)C(=O)N5C4CCC(=O)NC4=O)cn3)CC2)CCC1` (stereo not drawn) [Compound 249, 3-[6-[[1-[1-(1-methylcyclobutanecarbonyl)-4-piperidyl]pyrazol-4-yl]amino]-2-oxo-benzo[cd]indol-1-yl]piperidine-2,6-dione] cannot be ordered by pIC50: > 9.00 for the first, > 7.00 for the second.

`COC(c1cnn(C2CCN(C(=O)C3(C)CCC3)CC2)c1)c1ccc2c3c(cccc13)C(=O)N2C1CCC(=O)NC1=O` (stereo not drawn) [Compound 247, 3-[6-[methoxy-[1-[1-(1-methylcyclobutanecarbonyl)-4-piperidyl]pyrazol-4-yl]methyl]-2-oxo-benzo[cd]indol-1-yl]piperidine-2,6-dione] and `CC1(C(=O)N2CCC(n3cc(Nc4ccc5c6c(cccc46)C(=O)N5C4CCC(=O)NC4=O)c(Cl)n3)CC2)CCC1` (stereo not drawn) [Compound 251, 3-[6-[[3-chloro-1-[1-(1-methylcyclobutanecarbonyl)-4-piperidyl]pyrazol-4-yl]amino]-2-oxo-benzo[cd]indol-1-yl]piperidine-2,6-dione] cannot be ordered by pIC50: > 9.00 for the first, > 7.00 for the second.

`CC(C)(C)OC(=O)N1CCC(n2cc(Nc3ccc4c5c(cccc35)C(=O)N4C3CCC(=O)NC3=O)cn2)CC1` (stereo not drawn) [Compound 248, tert-butyl 4-[4-[[1-(2,6-dioxo-3-piperidyl)-2-oxo-benzo[cd]indol-6-yl]amino]pyrazol-1-yl]piperidine-1-carboxylate] and `CC(C)(C)OC(=O)N1CCC(n2cc(Nc3ccc4c5c(cccc35)C(=O)N4C3CCC(=O)NC3=O)c(Cl)n2)CC1` (stereo not drawn) [Compound 250, tert-butyl 4-[3-chloro-4-[[1-(2,6-dioxo-3-piperidyl)-2-oxo-benzo[cd]indol-6-yl]amino]pyrazol-1-yl]piperidine-1-carboxylate] cannot be ordered by pIC50: > 7.00 for the first, > 7.00 for the second.

With `CC1(C(=O)N2CCC(n3cc(Cc4ccc5c6c(cccc46)C(=O)N5C4CCC(=O)NC4=O)c4cccnc43)CC2)CCC1` (stereo not drawn) [Compound 253, 3-[6-[[1-[1-(1-methylcyclobutanecarbonyl)-4-piperidyl]pyrrolo[2,3-b]pyridin-3-yl]methyl]-2-oxo-benzo[cd]indol-1-yl]piperidine-2,6-dione] the pIC50 was > 9.00.

Same assay, conditions: NCIH929.1 cell viability, 96 hr, top concentration 1 μM, 14 points half log titration; read-out: IC50

`CC(C)(C)OC1CCC(n2cc(Cc3ccc4c5c(cccc35)C(=O)N4C3CCC(=O)NC3=O)cn2)CC1` (stereo not drawn) [Compound 213, 3-[6-[[1-(4-tert-butoxycyclohexyl)pyrazol-4-yl]methyl]-2-oxo-benzo[cd]indol-1-yl]piperidine-2,6-dione] and `O=C1CCC(N2C(=O)c3cccc4c(Cc5ccc(CN6C7COCC6C7)cc5)ccc2c34)C(=O)N1` (stereo not drawn) [Compound 226, 3-(6-(4-((3-oxa-6-azabicyclo[3.1.1]heptan-6-yl)methyl)benzyl)-2-oxobenzo[cd]indol-1(2H)-yl)piperidine-2,6-dione] cannot be ordered by pIC50: > 9.00 for the first, > 9.00 for the second.
